Experimental data reported in patent US20060121607A1, “Compositions and methods for neural differentiation of embryonic stem cells” (priority 2002, published 2006).

What was measured:
[1] = system: human ES cells; assay: Comparison of basic media for TH+ cell formation in human embryoid bodies; type: cell-based; settings: DMEM and 100 μM L-proline, absence of FGF2
Protocol: Embryoid bodies/neurospheres from human ES cells were grown without the use of MEDII conditioned media Media and supplements used were Hams DMEM/F12 (Gibco Cat # 11320-033), ITSS (Gibco Cat#17502-048) and N2 (Gibco Cat#41400-045).
The ability of basic media with supplements (DMEM+N2 or ITSS) to promote neural differentiation of hES cells was compared with medium that included F12: (DMEM:F12 (1:1)+N2 or ITSS).
Trypsinised Human ES cells were seeded at approximately 10 to 20 cells/μl of media into 10 ml of neurosphere media (DMEM:F12, 10 μg/ml heparin (SIGMA), 1/50 B27 (GIBCO), 1/100 pen/strep, 1/100 ITSS) in a T75 culture flask. 10 ng/ml FGF2 was optionally added but the culture medium was preferably mitogen-free (no FGF2). Cultures were maintained in the media for 9 days after which the embryoid bodies were optionally transferred to poly-L-ornithine/laminin plates and cultured in the same media for a further 6 days. The embryoid bodies so formed (EB^15), whether from adherent or suspension culture, were then triturated to near single cell form and used for either transplantation or for the formation of neurospheres/cell reaggregates.
Example 15 was repeated utilising human ES cells and a minimal media consisting of DMEM and 100 μM L-proline. The results were similar to those described in Example 5. […]

[2] = system: SSEA4 selected HESCs; settings: 50 μM Proline, around 3 weeks suspension
Description: Essentially serum free embryoid bodies were generated from bulk passaged monolayer HESC colonies as described in Example 5, in the presence of the media set out below.

[3] = system: sfEBM single cell suspension; assay: Clonal derivation of colonies from dispersed sfEBM in suspension; type: cell-based, human; settings: medium containing the factor alone
Protocol: sfEBMs were transferred to tissue culture dishes (4-well or 35 mm) and were rinsed with Ca^2+/Mg^2+ free PBS. After settling, the PBS was aspirated and 1 or 2 ml of 0.25% trypsin was added. sfEBMs were dispersed to a single cell suspension, with occasional doublets or triplets, by gentle trituration using a 1 ml pipette. The cell suspension was transferred to a 15 ml tube, diluted with 9 or 18 ml of medium and pelleted by centrifugation. The pellet was resuspended in DMEM/F12 supplemented with 1×N2 supplement, FGF-2 (4 ng/ml), 50% MEDII and added to agarose coated suspension dishes at low density (0.5-5 cells/μl). These cultures were not disturbed for 4-5 days, when small uniform colonies could be observed. Colonies could be harvested at approximately 10 days.
In an attempt to derive clones of essentially serum free embryoid bodies, trypsin was used to generate single cell suspensions from sfEBM cultures and low density cell suspensions, from 0-0.5-5 cells/μl, were incubated in suspension dishes. […] The synergistic activities of FGF2 and MEDII in the derivation of clonal sfEBMs was unexpected. […] The colonies produced were presumed to be clonal, and proliferated to as much as 0.2 mm in diameter within 10 days. The cloning efficiency was in the order of 4.5-6%.

Compound | TH+ cells in EB^17 bodies [1] [%] | appearance of sfEBPs with low cell death and distinct neural rosette structures [2] | generation of clonal colonies [3]
O=C(O)[C@@H]1CCCN1 [L-proline] | ~50 | noticeably enhanced | –
FGF-2: fibroblast growth factor FGF-2 | – | – | No clonal colonies
